Experimental findings from ChEMBL document CHEMBL1139735, “Inhibitors of unactivated p38 MAP kinase” (Bioorg Med Chem Lett, 2006) are described below.

Active and inactive are the calls of the source. The rule behind the calls is not given here.

For data set [1], the system named is Mus musculus. The data set can be described thus: Inhibition of TNF production in orally dosed mouse model. It counts as functional. The settings on record: po.
The next data set addresses T1, Cytochrome P450 1A2 (Homo sapiens, UniProt P05177).
T1 sequence (P05177 whole entry): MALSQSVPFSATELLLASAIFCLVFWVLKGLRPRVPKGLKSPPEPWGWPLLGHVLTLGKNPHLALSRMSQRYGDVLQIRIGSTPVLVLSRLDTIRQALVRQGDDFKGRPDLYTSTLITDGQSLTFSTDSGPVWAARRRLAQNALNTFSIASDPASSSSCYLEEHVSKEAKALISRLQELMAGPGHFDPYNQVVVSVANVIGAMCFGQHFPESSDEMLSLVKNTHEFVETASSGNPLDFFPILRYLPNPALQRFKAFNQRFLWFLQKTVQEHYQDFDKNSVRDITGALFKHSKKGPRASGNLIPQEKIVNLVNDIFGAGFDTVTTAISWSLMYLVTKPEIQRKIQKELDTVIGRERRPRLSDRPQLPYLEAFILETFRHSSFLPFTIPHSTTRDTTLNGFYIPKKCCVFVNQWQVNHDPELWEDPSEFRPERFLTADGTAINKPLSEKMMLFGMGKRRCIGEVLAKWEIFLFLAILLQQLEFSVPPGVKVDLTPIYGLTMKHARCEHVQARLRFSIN
The data set can be described thus: Inhibition of CYP1A2 below 15 uM. It is filed as ADME.

Data set [2] concerns Mus musculus. Kind of data set: Inhibition of collagen-induced arthritis in mouse at 30 mg/kg, po. It is filed as functional.
For data set [3], the system named is Mus musculus. Kind of data set: Toxicity in mouse at 200 mg/kg. The conditions noted are these: in vivo. It counts as organism-based. On the set-up: dose 200 mg/kg.
The next data set concerns the target Cytochrome P450 3A4 (Homo sapiens, UniProt P08684). The data set can be described thus: Inhibition of CYP3A4 below 15 uM. It counts as ADME.
The next data set relates to Rattus norvegicus. The data set can be described thus: Reduction of swelling in adjuvant-induced arthritis rat at 30 mg/kg, po. On the set-up: scale not given: the % may be the effect or the level left. It is filed as functional.
The target in the next data set is Cytochrome P450 2D6 (Homo sapiens, UniProt P10635). The data set can be described thus: Inhibition of CYP2D6 below 15 uM. It counts as ADME.
A further data set relates to PBMC. Kind of data set: Inhibition of TNF production in human PBMC. It is filed as functional, cell-based.
The target of data set [4] is T2, MAP kinase p38 (Homo sapiens, UniProt O15264+Q15759+Q16539+P53778). Kind of data set: Inhibition of p38 kinase. It counts as protein assay.
The next data set concerns the target Cytochrome P450 2C19 (Homo sapiens, UniProt P33261). The data set can be described thus: Inhibition of CYP2C19. It is filed as ADME.
The target of another data set is Cytochrome P450 2C9 (Homo sapiens, UniProt P11712). Kind of data set: Inhibition of CYP2C9. It is filed as ADME.
The target of data set [5] is Mitogen-activated protein kinase 14 (Homo sapiens, UniProt Q16539). The data set can be described thus: Binding affinity to p38alpha.
In data set [6] the test system is Mus musculus. The data set can be described thus: Inhibition of TNF production in mouse at 10 mg/kg. It is filed as functional.
Data set [7] addresses T2, MAP kinase p38. The data set can be described thus: Inhibition of p38 phosphorylation. It is filed as protein assay.
For data set [8], the target named is T3, 5-hydroxytryptamine receptor 3A (Homo sapiens, UniProt P46098).
T3 sequence (P46098 whole entry): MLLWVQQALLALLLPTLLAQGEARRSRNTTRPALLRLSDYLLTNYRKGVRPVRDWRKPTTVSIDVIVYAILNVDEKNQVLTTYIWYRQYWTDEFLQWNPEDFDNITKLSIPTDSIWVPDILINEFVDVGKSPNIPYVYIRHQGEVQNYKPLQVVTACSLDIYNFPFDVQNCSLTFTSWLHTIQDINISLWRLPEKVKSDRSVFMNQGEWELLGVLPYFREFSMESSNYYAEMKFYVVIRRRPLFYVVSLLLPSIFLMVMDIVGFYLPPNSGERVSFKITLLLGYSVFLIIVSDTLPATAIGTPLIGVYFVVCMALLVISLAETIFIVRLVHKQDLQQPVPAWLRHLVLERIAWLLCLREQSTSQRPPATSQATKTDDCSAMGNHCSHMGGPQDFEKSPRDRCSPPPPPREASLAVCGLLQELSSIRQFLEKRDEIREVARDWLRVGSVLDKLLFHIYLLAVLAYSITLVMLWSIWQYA
The data set can be described thus: Inhibition of 5HT3 receptor.

The target in data set [9] is T2, MAP kinase p38. The data set can be described thus: Inhibition of activated p38 kinase up to 10 uM. It counts as protein assay.
Data set [10] is described as follows: Bioavailability in dog. It counts as ADME, organism-based, Canis lupus familiaris. The conditions noted are these: in vivo.
Data set [11] is described as follows: Bioavailability in mouse. It counts as ADME, organism-based. The conditions noted are these: in vivo.
The nature of data set [12]: Bioavailability in monkey. The settings on record: rhesus monkey, in vivo. It is filed as ADME, organism-based, Macaca mulatta.
Data set [13] can be described thus: Bioavailability in rat. It is filed as ADME, organism-based. The settings on record: in vivo.
Data set [14] has as its system Mus musculus. The data set can be described thus: Inhibition of LPS-induced TNF production in mouse at 10 mg/kg after 2 hrs. It is filed as functional.

Sequence of Cytochrome P450 2C19 (P33261 whole entry): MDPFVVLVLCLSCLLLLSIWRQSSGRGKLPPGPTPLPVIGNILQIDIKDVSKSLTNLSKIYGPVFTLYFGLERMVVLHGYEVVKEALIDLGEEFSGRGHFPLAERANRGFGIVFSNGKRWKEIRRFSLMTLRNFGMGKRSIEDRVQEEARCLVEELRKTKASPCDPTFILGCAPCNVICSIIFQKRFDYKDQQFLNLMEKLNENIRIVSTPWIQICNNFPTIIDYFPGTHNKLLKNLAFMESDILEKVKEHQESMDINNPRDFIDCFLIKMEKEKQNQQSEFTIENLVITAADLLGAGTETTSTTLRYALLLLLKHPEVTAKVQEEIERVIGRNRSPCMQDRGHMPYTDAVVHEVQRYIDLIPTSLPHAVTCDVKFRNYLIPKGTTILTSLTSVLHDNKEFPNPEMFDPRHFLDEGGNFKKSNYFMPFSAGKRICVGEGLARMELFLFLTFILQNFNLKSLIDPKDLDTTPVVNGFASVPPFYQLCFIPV
Sequence of Cytochrome P450 3A4 (P08684 whole entry): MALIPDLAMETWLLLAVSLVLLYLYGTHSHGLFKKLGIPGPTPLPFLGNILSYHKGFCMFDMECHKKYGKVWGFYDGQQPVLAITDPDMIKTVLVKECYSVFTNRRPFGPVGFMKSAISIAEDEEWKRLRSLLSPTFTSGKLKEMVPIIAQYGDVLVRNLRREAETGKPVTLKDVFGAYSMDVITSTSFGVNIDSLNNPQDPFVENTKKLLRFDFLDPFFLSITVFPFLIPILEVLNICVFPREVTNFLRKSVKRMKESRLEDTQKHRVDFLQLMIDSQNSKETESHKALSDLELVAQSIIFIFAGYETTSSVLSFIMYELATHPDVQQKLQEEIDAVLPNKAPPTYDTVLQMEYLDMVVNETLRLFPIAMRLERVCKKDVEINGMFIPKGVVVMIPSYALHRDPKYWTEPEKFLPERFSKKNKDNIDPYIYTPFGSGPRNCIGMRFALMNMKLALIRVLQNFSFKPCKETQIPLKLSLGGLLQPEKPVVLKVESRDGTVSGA
Sequence of Cytochrome P450 2C9 (P11712 whole entry): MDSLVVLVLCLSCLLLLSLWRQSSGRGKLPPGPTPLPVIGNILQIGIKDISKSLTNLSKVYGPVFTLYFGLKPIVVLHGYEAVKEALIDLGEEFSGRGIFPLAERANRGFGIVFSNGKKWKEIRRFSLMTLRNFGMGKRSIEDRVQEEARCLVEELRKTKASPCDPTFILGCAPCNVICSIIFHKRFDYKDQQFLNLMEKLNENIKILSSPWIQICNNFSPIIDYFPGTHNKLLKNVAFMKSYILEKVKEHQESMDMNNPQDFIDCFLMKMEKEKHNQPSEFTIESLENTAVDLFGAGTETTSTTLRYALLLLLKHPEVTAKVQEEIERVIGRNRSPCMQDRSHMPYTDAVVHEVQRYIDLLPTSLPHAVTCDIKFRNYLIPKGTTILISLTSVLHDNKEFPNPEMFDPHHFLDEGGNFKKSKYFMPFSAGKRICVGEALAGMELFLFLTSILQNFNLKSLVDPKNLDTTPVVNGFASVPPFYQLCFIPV
Sequence of Cytochrome P450 2D6 (P10635 whole entry): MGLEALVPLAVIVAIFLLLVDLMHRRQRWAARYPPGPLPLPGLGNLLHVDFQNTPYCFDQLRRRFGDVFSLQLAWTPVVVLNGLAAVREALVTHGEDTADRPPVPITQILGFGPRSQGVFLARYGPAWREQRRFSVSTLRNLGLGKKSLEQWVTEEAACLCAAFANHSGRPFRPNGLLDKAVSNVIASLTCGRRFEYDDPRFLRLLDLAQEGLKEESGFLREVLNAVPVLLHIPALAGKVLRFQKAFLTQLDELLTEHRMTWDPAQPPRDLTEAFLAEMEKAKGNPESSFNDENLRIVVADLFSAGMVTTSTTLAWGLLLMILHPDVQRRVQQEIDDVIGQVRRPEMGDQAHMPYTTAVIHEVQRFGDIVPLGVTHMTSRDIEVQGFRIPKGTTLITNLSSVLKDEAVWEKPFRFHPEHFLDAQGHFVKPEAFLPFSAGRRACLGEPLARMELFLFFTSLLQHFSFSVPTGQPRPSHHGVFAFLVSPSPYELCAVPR
Sequence of Mitogen-activated protein kinase 14 (Q16539 whole entry): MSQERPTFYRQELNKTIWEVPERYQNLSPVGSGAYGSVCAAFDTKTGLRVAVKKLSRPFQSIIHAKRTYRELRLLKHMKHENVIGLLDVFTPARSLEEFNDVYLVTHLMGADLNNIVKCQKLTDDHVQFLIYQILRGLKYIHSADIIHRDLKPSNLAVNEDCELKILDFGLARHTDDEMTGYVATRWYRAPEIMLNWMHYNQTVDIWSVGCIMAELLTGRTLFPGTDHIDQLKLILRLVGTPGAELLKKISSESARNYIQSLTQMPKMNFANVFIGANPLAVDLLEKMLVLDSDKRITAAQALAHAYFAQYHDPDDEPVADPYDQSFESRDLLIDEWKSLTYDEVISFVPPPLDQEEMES

Turning to `CC(=O)N1CCN(c2c(-c3ccncc3)c(-c3ccc(F)cc3)c(C#N)n2C)CC1` [listing 1 of 2 here], in the data set on Mus musculus [1], the ED50 is 0.5 mg/kg. The Activity result at Cytochrome P450 1A2 is listed as “Not Active”; in the data set on Mus musculus [3], “Non-toxic”; on Cytochrome P450 3A4 it was “Not Active”; with Rattus norvegicus, 91%; on Cytochrome P450 2D6, “Not Active”. For the same compound, in the data set on Mus musculus [2], at 30 mg/kg the inhibition in vivo was 50%. The IC50 with PBMC stood at 123 nM; against MAP kinase p38 [4], 2000 nM; against Cytochrome P450 2C19, 8000 nM; against Cytochrome P450 2C9, 4000 nM. Also, the dissociation constant (Kd) in [5] came to 100 nM.
Consider `CC(=O)c1c(-c2ccc(F)cc2)c(-c2ccncc2)c(N2CCNCC2)n1C`, for which the Activity result in the data set with Mus musculus [3] is listed as “Non-toxic”. Further, the IC50 in the data set on PBMC came out at 40 nM.
`COC(=O)c1c(-c2ccc(F)cc2)c(-c2ccncc2)c(N2CCOCC2)n1C` displayed a 50% inhibitory concentration (IC50) in the data set on PBMC of 47 nM.
Consider `CCN1CCN(c2c(-c3ccncc3)c(-c3ccc(F)cc3)c(C(=O)OC)n2C)CC1`, for which, in the data set on Mus musculus [3], the Activity entry is on record as “Non-toxic”. Also, the concentration for half-maximal inhibition (IC50) in the data set with PBMC came to 135 nM.
As for `CCOC(=O)c1c(-c2cc(F)cc(F)c2)c(-c2ccncc2)c(N2CCNCC2)n1C`, the IC50 is 93 nM with PBMC and over 10000 nM at MAP kinase p38 [4]. In addition, the inhibition in vivo at 10 mg/kg with Mus musculus [6] is 79%.
For the compound `CC(=O)c1c(-c2ccc(F)cc2)c(-c2ccncc2)c(N2CCN(C(C)=O)CC2)n1C`, in the data set with Mus musculus [3], the Activity entry was “Non-toxic”. In addition, the IC50 with PBMC was determined as 43 nM.
Take `CC(=O)N1CCN(c2c(-c3ccncc3)c(-c3ccc(F)cc3)c(C#N)n2C)CC1` [listing 2 of 2 here]: at MAP kinase p38 [7], the outcome was Active.
For the compound `CN1CCN(c2c(-c3ccncc3)c(-c3ccc(F)cc3)c(C#N)n2C)CC1`, the IC50 in the data set with PBMC is 80 nM.
`CC(C)NC(=O)c1c(-c2ccc(F)cc2)c(-c2ccncc2)c(N2CCNCC2)n1C` came in with an IC50 in the data set with PBMC of 10000 nM.
Same read-out and setting: with `Cn1c(C(=O)c2ccccc2)c(-c2ccc(F)cc2)c(-c2ccncc2)c1N1CCNCC1` the figure was 660 nM.
Regarding `COC(=O)c1c(-c2ccc(F)cc2)c(-c2ccncc2)c(N(C)CCN2CCOCC2)n1C`, the ED50 with Mus musculus [1] worked out at 3 mg/kg. Moreover, in the data set with PBMC, the half-inhibitory concentration (IC50) stood at 38 nM. The same compound gave an inhibition in vivo at 10 mg/kg in the data set on Mus musculus [6] of 78%.
On to `CCCN1CCN(c2c(-c3ccncc3)c(-c3ccc(F)cc3)c(C(=O)OC)n2C)CC1`, for which inhibition in the data set on PBMC was half-maximal at 901 nM (IC50).
The compound `COC(=O)c1c(-c2ccc(F)cc2)c(-c2ccncc2)c(N2CCCC2)n1C` yielded an IC50 with PBMC of 17 nM.
In the case of `COC(=O)c1c(-c2ccc(F)cc2)c(-c2ccncc2)c(N2CCN(C)CC2)n1C`, in the data set with Mus musculus [3], the Activity entry is “Non-toxic”. For the same compound, in the data set with PBMC, inhibition was half-maximal at 95 nM (IC50).
As to `CCOC(=O)c1c(-c2cccc(C(F)(F)F)c2)c(-c2ccncc2)c(N2CCNCC2)n1C`, the IC50 with PBMC was 21 nM; at MAP kinase p38 [4], over 10000 nM.
In the data set on PBMC, `COC(=O)c1c(-c2ccc(F)cc2)c(-c2ccncc2)c(NCCN2CCOCC2)n1C` had an IC50 of 50 nM.
On the same count and under the same terms, with `COC(=O)c1c(-c2ccc(F)cc2)c(-c2ccncc2)c(N2CCN(C(C)C)CC2)n1C` the figure was 1980 nM.
`CC(=O)C(=O)c1c(-c2ccc(F)cc2)c(-c2ccncc2)c(N2CCNCC2)n1C` displayed a 50% inhibitory concentration (IC50) in the data set with PBMC of 28 nM. In the data set with Mus musculus [6], this compound registered an inhibition in vivo at 10 mg/kg of 52%.
As to `COC(=O)c1c(-c2ccc(F)cc2)c(-c2ccncc2)c(C2=CCNCC2)n1C`, in the data set with Mus musculus [3], the Activity result is listed as “Non-toxic”. The compound further gave an IC50 in the data set on PBMC of 72 nM.
As for `Cn1c(C#N)c(-c2ccc(F)cc2)c(-c2ccncc2)c1N1CCNCC1`, in the data set with Mus musculus [1], the 50% effective dose (ED50) amounted to 5 mg/kg. For the same compound, the 50% inhibitory concentration (IC50) in the data set on PBMC worked out at 18 nM.
`COC(=O)c1c(-c2ccc(F)cc2)c(-c2ccncc2)c(N2CCNCC2)n1C` registered an ED50 in the data set on Mus musculus [1] of 7.5 mg/kg. For the same compound, in the data set on Mus musculus [3], the Activity entry is recorded as “Toxic”. In addition, the figures for the half-inhibitory concentration (IC50) (in the data set with PBMC; in data set [8]) were 33 nM and 275 nM, respectively. Moreover, the result on MAP kinase p38 [9] was inactive.
`CNC(=O)c1c(-c2ccc(F)cc2)c(-c2ccncc2)c(N2CCNCC2)n1C`: half-maximal inhibition in the data set on PBMC (IC50) required 779 nM.
The compound `Cn1cc(-c2ccc(F)cc2)c(-c2ccncc2)c1N1CCNCC1` displayed an IC50 in the data set with PBMC of 15 nM.
Take `CC(=O)N1CCN(c2c(-c3ccncc3)c(-c3ccc(F)cc3)c(C#N)n2C)CC1.Cl`: the bioavailability in [10], in [11], in data set [12] and in [13] was 70% throughout.
For the compound `CC(=O)c1c(-c2ccc(F)cc2)c(-c2ccncc2)c(N2CCN(C)CC2)n1C`, in the data set with PBMC, the IC50 turned out to be 529 nM. For the same compound, the inhibition in vivo at 10 mg/kg with Mus musculus [14] was determined as 40%.
In the data set with PBMC, `COC(=O)c1c(-c2ccc(F)cc2)c(-c2ccncc2)c(NCCN2CCCCC2)n1C` registered an IC50 of 92 nM.
In the data set on PBMC, `COC(=O)c1c(-c2ccc(F)cc2)c(-c2ccncc2)c(NCCN(C)C)n1C` came in with an IC50 of 98 nM.
As to `CCOC(=O)c1c(-c2ccc(C)cc2)c(-c2ccncc2)c(N2CCNCC2)n1C`, the half-maximal inhibitory concentration (IC50) with PBMC was determined as 60 nM; against MAP kinase p38 [4], 3939 nM. In the data set on Mus musculus [6], this compound gave an inhibition in vivo at 10 mg/kg of 79%.
Regarding `COC(=O)c1c(-c2ccc(F)cc2)c(-c2ccncc2)c(NC2CCNCC2)n1C`, in the data set on PBMC, the midpoint of inhibition, the IC50, lay at 315 nM.
For `CCC(=O)c1c(-c2ccc(F)cc2)c(-c2ccncc2)c(N2CCNCC2)n1C`, half-maximal inhibition in the data set with PBMC (IC50) required 67 nM.

Usually ED50 stands for the midpoint of the dose-response relation. One may read the inhibition in vivo as the percentage by which the read-out fell short of the control. As a reminder, the IC50 is the midpoint of a concentration-inhibition curve. As usually defined, the Kd is the concentration at which binding is half-saturated. By bioavailability is commonly meant dose-corrected exposure relative to a reference, in per cent.
